Data taken from patent US20240294499A1, “TARGETED PROTEIN DEGRADATION USING BIFUNCTIONAL COMPOUNDS THAT BIND UBIQUITIN LIGASE AND TARGET MCL-1 PROTEIN” (Captor Therapeutics S.A., priority 2021, published 2024).

Columns and labels:
[1] = target: T1, [MCL-1]-[compound of formula (I)]-[CRBN/DDB1] complex (Homo sapiens, UniProt Q07820+Q96SW2); assay: AlphaLISA dose response ternary complex formation assay; type: binding; conditions: read-out: AlphaLISA dose response Average pEC50 by molecule (converted)
T1 sequence (Q07820 whole entry): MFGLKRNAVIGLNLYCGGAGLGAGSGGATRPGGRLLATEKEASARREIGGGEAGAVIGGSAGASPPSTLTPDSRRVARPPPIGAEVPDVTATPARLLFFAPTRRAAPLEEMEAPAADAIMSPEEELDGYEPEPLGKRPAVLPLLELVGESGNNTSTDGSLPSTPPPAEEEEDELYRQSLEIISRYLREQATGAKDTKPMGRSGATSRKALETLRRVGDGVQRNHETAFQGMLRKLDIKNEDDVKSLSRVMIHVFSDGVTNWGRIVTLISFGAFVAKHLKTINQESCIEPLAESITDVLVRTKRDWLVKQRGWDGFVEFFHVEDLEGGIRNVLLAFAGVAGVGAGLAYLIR
T1 sequence (Q96SW2 whole entry): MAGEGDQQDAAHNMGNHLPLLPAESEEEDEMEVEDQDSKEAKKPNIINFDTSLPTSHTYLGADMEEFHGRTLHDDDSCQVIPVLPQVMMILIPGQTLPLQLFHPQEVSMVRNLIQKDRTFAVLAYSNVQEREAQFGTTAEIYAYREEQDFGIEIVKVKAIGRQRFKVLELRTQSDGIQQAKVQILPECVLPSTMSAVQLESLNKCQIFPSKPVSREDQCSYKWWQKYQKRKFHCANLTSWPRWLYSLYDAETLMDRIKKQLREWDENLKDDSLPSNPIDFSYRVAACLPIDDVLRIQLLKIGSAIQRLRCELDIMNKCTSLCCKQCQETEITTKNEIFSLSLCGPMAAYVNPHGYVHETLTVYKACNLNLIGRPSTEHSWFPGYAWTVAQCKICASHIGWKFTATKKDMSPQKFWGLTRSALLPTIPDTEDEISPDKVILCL
T1 sequence (Q16531 whole entry partner): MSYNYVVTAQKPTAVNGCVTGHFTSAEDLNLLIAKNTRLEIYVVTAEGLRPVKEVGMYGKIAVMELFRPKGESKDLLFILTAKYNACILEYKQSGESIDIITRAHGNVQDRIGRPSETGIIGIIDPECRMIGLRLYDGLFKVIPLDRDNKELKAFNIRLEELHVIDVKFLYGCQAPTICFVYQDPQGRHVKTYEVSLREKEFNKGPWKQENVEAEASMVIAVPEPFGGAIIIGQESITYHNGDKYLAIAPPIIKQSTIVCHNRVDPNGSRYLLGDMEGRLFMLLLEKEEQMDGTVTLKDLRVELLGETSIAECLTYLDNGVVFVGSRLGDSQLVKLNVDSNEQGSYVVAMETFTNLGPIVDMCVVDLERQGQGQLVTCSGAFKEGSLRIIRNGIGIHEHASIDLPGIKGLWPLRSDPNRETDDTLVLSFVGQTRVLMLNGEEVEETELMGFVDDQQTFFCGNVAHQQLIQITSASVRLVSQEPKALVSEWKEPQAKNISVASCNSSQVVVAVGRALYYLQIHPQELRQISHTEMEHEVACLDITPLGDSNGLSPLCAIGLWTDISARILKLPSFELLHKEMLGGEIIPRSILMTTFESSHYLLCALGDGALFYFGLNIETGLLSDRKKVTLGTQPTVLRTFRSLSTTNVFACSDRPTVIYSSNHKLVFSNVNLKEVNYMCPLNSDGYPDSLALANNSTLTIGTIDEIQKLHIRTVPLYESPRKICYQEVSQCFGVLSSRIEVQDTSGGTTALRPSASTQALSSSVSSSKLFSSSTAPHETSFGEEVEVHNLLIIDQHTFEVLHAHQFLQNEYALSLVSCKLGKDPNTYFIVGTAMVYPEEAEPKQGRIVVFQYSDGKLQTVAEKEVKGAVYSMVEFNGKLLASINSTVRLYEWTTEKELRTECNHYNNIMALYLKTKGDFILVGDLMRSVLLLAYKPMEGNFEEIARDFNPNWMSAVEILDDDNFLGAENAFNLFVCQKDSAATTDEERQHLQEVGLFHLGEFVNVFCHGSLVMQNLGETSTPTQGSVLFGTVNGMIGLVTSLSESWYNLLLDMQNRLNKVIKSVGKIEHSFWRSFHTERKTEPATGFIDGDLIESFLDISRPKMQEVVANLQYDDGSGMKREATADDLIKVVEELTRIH
Procedure, shortened: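 EC50 comes from dose–response of AlphaLISA luminescence (excitation 680, emission 615 nm), normalised between DMSO background and an internal positive control, with concentrations past the hook point dropped. Ternary complex formed by mixing bead-bound biotin-hMCL-1 and His-CRBN/DDB1 (protein solutions 40 and 200 nM) with compound in 2% DMSO, 30 min, 25 °C.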

OPM-2 cells = assay: Cell viability assay (CellTiter-Glo), OPM-2; type: cell-based; conditions: Homo sapiens, 24 hours incubation, 1% FBS, read-out: Average pIC50 by molecule OPM-2 (converted)
Excerpt: The effect of various compounds of the invention on the viability of OPM-2, MV-4-11 and ARH-77 cell lines was investigated, using the CTG protocol described below.
OPM-2 and MV-4-11 cell lines are derived from multiple myeloma and acute myeloid leukaemia, respectively. Both cell lines are described in the literature as MCL-1 dependent lines, as opposed to lymphoblast-like ARH-77 cell line, which is described as independent of MCL-1 (Tron A E et al. Nat Commun. 2018; 9: 5341; Caenepeel S et al. Cancer Discov. 2018 December; 8(12):1582-1597).
Cells (OPM-2, MV-4-11 or ARH-77) were seeded on […] in a growth medium with FBS reduced to 1%. Next, compound stocks were pre-diluted in DMSO and added directly to the cells growth medium (final DMSO concentration: 0.5%). Compound concentrations used in this assay: 1/3 dilutions starting at 30 uM (9 to 12 points).
After 24 hours of incubation, cell viability was evaluated using CellTiter-Glo Luminescent Cell Viability Assay (Promega, cat #G7572). Luminescence signal was measured using a CLARIOstar Plus Multi-Mode Microplate Reader (574-590 nm).
Results were normalized to DMSO control.

MV-4-11 cells = assay: Cell viability assay (CellTiter-Glo), MV-4-11; type: cell-based; conditions: Homo sapiens, MV4-11, 24 hours incubation, 1% FBS, read-out: Average pIC50 by molecule MV-4-11 (converted)
Procedure, shortened: (§1)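 OPM-2, MV-4-11 and ARH-77 cells were grown in medium with 1% FBS and treated with compound in 1/3 dilutions from 30 uM (9–12 points, 0.5% DMSO). Viability was read by CellTiter-Glo luminescence after 24 hours and normalized to DMSO control.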

MCL-1 protein [2] = target: T2, MCL-1 protein (Homo sapiens, UniProt Q07820); assay: OPM-2 cells: MCL-1 protein degradation, Western blot; type: cell-based; parameters: endogenous in cells; host or cells: OPM-2; conditions: OPM-2 cell line, 6 h treatment, 100 nM compound, vs DMSO
T2 sequence (Q07820 whole entry): as the sequence (Q07820 whole entry) above
Excerpt: The effect of various compounds of the invention and the reference compounds on MCL-1 protein degradation in the OPM-2 cell line was investigated, using the degradation assay protocol below.
(§2) OPM-2 cells were maintained in RPMI-1640 medium, supplemented with penicillin/streptomycin and 10% Fetal Bovine Serum (FBS). During the treatment, FBS concentration was reduced to 1%.
(§3) Compound stocks were pre-diluted in DMSO and added directly to the cells growth medium (final DMSO concentration: 0.5%).
(§4) OPM-2 cells were collected, centrifuged (250 rcf, 5 min), resuspended in a growth medium containing 1% FBS and counted. The cell suspension was then adjusted to 1×10^6 cell/ml using a growth medium containing 1% FBS. Afterwards, 0.5×10^6 cells were seeded on 24-well plates in 0.5 mL of medium per well. Immediately after seeding cells, compounds in appropriate concentrations were added to the cell culture medium.
Following the treatment with the compounds, cells were collected from the plates and suspended in a lysis buffer (2% SDS, 50 mM Tris, pH 8.0, 100 U/ml Pierce Universal Nuclease for Cell Lysis, complete EDTA-free Protease Inhibitor Cocktail) and incubated on ice for 45 min. The amount of protein was determined via BCA assay, and the equal quantity of each sample was loaded on the precast gel for the protein separation. Following the electrophoresis and transfer to the membrane, the membrane was stained with Ponceau (0.1% (w/v) Ponceau in 5% acetic acid). After total protein detection, the stain was washed out using TBST. After the antibody staining for MCL-1 and α-tubulin, the membranes were washed and signals developed.
Densitometric values for MCL-1 were normalized to total protein level (the Ponceau Staining). [%] of protein reduction is calculated in comparison to the cells treated with DMSO, which stand for 0%.
The results for the 6 h treatment with 100 nM compounds are shown in Table 9, using the following labels: • <30% for 0-29% of MCL-1 protein reduction, • ≥30% for 30-49% of MCL-1 protein reduction, • ≥50% for 50-100% of MCL-1 protein reduction.

MCL-1 protein [3] = target: T2, MCL-1 protein; assay: OPM-2 cells: MCL-1 protein degradation, Simple Western; type: cell-based; parameters: endogenous in cells; host or cells: OPM-2; conditions: OPM-2 cell line, 6 h treatment, 100 nM compound, vs DMSO
Excerpt: The effect of various compounds of the invention and the reference compounds on MCL-1protein degradation in the OPM-2 cell line was investigated, using the degradation assay protocol below.
as §2, §3, §4
Following the treatment with the compounds, cells were collected from the plates and suspended in a lysis buffer (2% SDS, 50 mM Tris, pH 8.0, 100 U/ml Pierce Universal Nuclease for Cell Lysis, cOmplete EDTA-free Protease Inhibitor Cocktail) and incubated on ice for 45 min.
The following steps, including sample loading, protein separation, immunoprobing or labelling, washes and detection analysis was performed using Jess from ProteinSimple, an automatic system for analyzing protein levels in cell lysates (12-230 kDa Jess or Wes separation module 8×25 capillaries, protein normalization assay, no. SM-PN01-1). The Protein of Interest was detected using MCL-1 (D35A5) Rabbit monoclonal antibody (Cell Signaling, #5453, LOT: 4). Antibody was diluted in a ratio of 1:100 in Antibody diluent.
[%] of protein reduction is calculated in comparison to the cells treated with DMSO, which stand for 0%.
The results for the 6 h treatment with 100 nM compounds are shown in Table 9, using the following labels: • <20% for 0-19% of MCL-1 protein reduction, • ≥20% for 20-39% of MCL-1 protein reduction, • ≥40% for 40-100% of MCL-1 protein reduction.

ARH-77 cells = assay: Cell viability assay (CellTiter-Glo), ARH-77; type: cell-based; conditions: Homo sapiens, ARH-77, 24 hours incubation, 1% FBS, read-out: Average pIC50 by molecule ARH-77 (converted)
Procedure, shortened: as §1

[4] = target: T1, [MCL-1]-[compound of formula (I)]-[CRBN/DDB1] complex; assay: HTRF ternary complex assay; type: binding; conditions: ternary complex formation; read-out: HTRF ternary complex Average pEC50 by molecule (converted)
Procedure, shortened: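 hMcl-1 and CRBN (mix at 48 nM and 105.6 nM) with Streptavidin-Eu cryptate and anti-6×His-d2 in PPI Europium buffer with 2 mM DTT; compounds in dose-response, 0.5% DMSO. Incubated 180 min at 25° C, TR-FRET 665/620 read. Bell-shaped curve fitted by Gaussian; EC50 reported.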

DMS 114 cells = assay: Cell viability assay (CellTiter-Glo), DMS 114; type: cell-based; conditions: Homo sapiens, DMS-114, 72 h, 72 hours incubation, 10% FBS, read-out: Average pIC50 by molecule DMS 114 (converted)
Excerpt: The effect of various compounds of the invention on the viability of DMS 114 cell line was investigated, using the CTG protocol described below.
DMS 114 cell line is derived from small-cell lung cancer, which is described in the literature as MCL-1 dependent lines [Yasuda Y et al. Cell Death & Disease 2020; 11: 177].
DMS 114 cells were detached with trypsin and then resuspended in growth medium containing 10% FBS and counted. Cell suspension was then adjusted to 5×10^4 cells/ml using growth medium containing 10% FBS. Afterwards, […] were seeded on 384-well plates (50 μl). Plates were then placed in the incubator overnight until treated. Next day, compounds were added using ECHO 555 liquid handler. Compound concentrations used in this assay: 1/3 dilutions starting at 30 uM (9 to 12 points).
After 72 hours of incubation, cell viability was evaluated using CellTiter-Glo Luminescent Cell Viability Assay (Promega, cat #G7572). Luminescence signal was measured using a CLARIOstar Plus Multi-Mode Microplate Reader (574-590 nm).

Row | SMILES | EC50 [1] [nM] | IC50 (MV-4-11 cells) [nM] | Western blot, % of protein reduction (MCL-1 protein [2]) [%] | Simple Western, % of protein reduction (MCL-1 protein [3]) [%] | EC50 [4] [nM] | IC50 (OPM-2 cells) [nM] | IC50 (ARH-77 cells) [nM] | IC50 (DMS 114 cells) [nM]
1 | Cc1nn(C)c(C)c1-c1c(Cl)ccc2c(CCCOc3cccc4ccccc34)c(C(=O)O)n(CCN3C[C@@H]4CN(C(=O)COc5cccc6c5C(=O)N(C5CCC(=O)NC5=O)C6=O)C[C@@H]4C3)c12 (stereo partly drawn) [Compound 211, 6-chloro-1-(2-((3aR,6aS)-5-(2-((2-(2,6-dioxopiperidin-3-yl)-1,3-dioxoisoindolin-4-yl)oxy)acetyl)hexahydropyrrolo[3,4-c]pyrrol-2(1H)-yl)ethyl)-3-(3-(naphthalen-1-yloxy)propyl)-7-(1,3,5-trimethyl-1H-pyrazol-4-yl)-1H-indole-2-carboxylic acid] | < 100 | ≤ 316 | – | – | – | ≤ 3160 | > 10000 | –
2 | Cc1nn(C)c(C)c1-c1cccc2c(CCCOc3cccc4ccccc34)c(C(=O)O)n(CCN3CCN(C(=O)COc4cccc5c4C(=O)N(C4CCC(=O)NC4=O)C5=O)CC3)c12 (stereo not drawn) [Compound 241, 1-(2-(4-(2-((2-(2,6-dioxopiperidin-3-yl)-1,3-dioxoisoindolin-4-yl)oxy)acetyl)piperazin-1-yl)ethyl)-3-(3-(naphthalen-1-yloxy)propyl)-7-(1,3,5-trimethyl-1H-pyrazol-4-yl)-1H-indole-2-carboxylic acid] | < 100 | ≤ 1000 | ≥50 | ≥20 | – | – | – | –
3 | Cc1nc2c(C(=O)NC3CCC(=O)NC3=O)cc(OCC(=O)N3CCN(CCn4c(C(=O)O)c(CCCOc5cccc6ccccc56)c5ccc(Cl)c(-c6c(C)nn(C)c6C)c54)CC3)cc2[nH]1 (stereo not drawn) [Compound 263, 6-chloro-1-(2-{4-[2-({4-[(2,6-dioxopiperidin-3-yl)carbamoyl]-2-methyl-1H-1,3-benzodiazol-6-yl}oxy)acetyl]piperazin-1-yl}ethyl)-3-[3-(naphthalen-1-yloxy)propyl]-7-(1,3,5-trimethyl-1H-pyrazol-4-yl)-1H-indole-2-carboxylic acid] | < 100 | ≤ 316 | ≥50 | ≥40 | – | ≤ 1000 | – | –

More lines, main results first:

Row | EC50 [1] [nM] | IC50 (MV-4-11 cells) [nM] | Western blot, % of protein reduction (MCL-1 protein [2]) [%] | Simple Western, % of protein reduction (MCL-1 protein [3]) [%] | EC50 [4] [nM] | SMILES | IC50 (OPM-2 cells) [nM] | IC50 (ARH-77 cells) [nM] | IC50 (DMS 114 cells) [nM]
4 | < 100 | ≤ 100 | ≥50 | ≥20 | – | Cc1cc(OCCCc2c(C(=O)O)n(CCN3CCN(C(=O)COc4cccc5c4C(=O)N(C4CCC(=O)NC4=O)C5=O)CC3)c3c(-c4c(C)nn(C)c4C)c(Cl)ccc23)cc(C)c1Cl (stereo not drawn) [Compound 201, 6-chloro-3-(3-(4-chloro-3,5-dimethylphenoxy)propyl)-1-(2-(4-(2-((2-(2,6-dioxopiperidin-3-yl)-1,3-dioxoisoindolin-4-yl)oxy)acetyl)piperazin-1-yl)ethyl)-7-(1,3,5-trimethyl-1H-pyrazol-4-yl)-1H-indole-2-carboxylic acid] | ≤ 1000 | – | –
5 | < 10 | ≤ 100 | – | – | < 10 | Cc1nn(C)c(C)c1-c1c(Cl)ccc2c(CCCOc3cccc4c3CCCC4)c(C(=O)O)n(CCN3CCN(C(=O)COc4cccc5c4C(=O)N(C4CCC(=O)NC4=O)C5=O)CC3)c12 (stereo not drawn) [Compound 216, 6-chloro-1-{2-[4-(2-{[2-(2,6-dioxopiperidin-3-yl)-1,3-dioxo-2,3-dihydro-1H-isoindol-4-yl]oxy}acetyl)piperazin-1-yl]ethyl}-3-[3-(5,6,7,8-tetrahydronaphthalen-1-yloxy)propyl]-7-(1,3,5-trimethyl-1H-pyrazol-4-yl)-1H-indole-2-carboxylic acid] | ≤ 100 | > 10000 | ≤ 3160
